{
  "source": "patent US11278522B2",
  "about": "“Use of methadone metabolites for treatment of anxiety and depression” (Georgetown University, priority 2015, dated 2022)",
  "key": {"[1]": {"target": "T1, human α3β4 nAChRs (Homo sapiens, UniProt P30926+P32297)", "T1 construct": "expressed in transfected cells", "T1 sequence (P32297 32-505)": "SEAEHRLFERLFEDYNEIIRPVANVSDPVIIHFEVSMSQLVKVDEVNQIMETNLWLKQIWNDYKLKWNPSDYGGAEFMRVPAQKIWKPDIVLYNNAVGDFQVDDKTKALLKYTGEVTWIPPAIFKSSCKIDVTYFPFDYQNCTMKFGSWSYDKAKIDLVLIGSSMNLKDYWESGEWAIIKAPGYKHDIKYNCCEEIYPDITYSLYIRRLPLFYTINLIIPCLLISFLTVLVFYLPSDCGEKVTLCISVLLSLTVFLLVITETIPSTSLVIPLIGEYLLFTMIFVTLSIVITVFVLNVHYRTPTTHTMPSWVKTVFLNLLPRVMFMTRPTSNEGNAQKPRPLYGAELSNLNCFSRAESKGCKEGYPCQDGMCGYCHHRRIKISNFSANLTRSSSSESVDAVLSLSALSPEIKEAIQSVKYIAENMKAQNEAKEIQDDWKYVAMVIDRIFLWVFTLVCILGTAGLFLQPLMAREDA", "T1 sequence (P30926 22-498)": "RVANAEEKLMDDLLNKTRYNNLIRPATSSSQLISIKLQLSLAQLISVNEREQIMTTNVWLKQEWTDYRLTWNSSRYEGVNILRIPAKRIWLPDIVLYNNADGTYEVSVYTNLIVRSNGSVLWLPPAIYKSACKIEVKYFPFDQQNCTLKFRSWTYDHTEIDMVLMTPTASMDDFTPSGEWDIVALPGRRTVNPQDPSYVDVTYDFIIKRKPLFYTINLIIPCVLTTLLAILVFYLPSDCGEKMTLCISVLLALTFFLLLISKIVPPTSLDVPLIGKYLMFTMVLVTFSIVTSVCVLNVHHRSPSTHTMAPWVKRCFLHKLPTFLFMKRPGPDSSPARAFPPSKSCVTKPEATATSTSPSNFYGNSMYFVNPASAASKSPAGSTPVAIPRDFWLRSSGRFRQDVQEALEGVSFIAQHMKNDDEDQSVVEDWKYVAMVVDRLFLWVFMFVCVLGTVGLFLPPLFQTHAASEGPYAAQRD", "test": "86Rb+ efflux assay, inhibition of nicotine-stimulated efflux, α3β4 nAChRs", "type": "cell-based", "protocol": "Stable cell lines and ^86Rb^+ efflux Assay. […] These cell lines were maintained in minimum essential medium (MEM) supplemented with 10% fetal bovine serum, 100 units/mL penicillin G, […] and selective antibiotics at 37° C. with 5% CO2 in a humidified incubator. Tissue culture medium and antibiotics were obtained from Invitrogen Corporation (Carlsbad, Calif.), unless otherwise stated. Fetal bovine serum was obtained from Gemini Bio-Products (Woodland, Calif.).\nIn brief, cells were plated into 24-well plates coated with poly-D-lysine. […] The cells were then incubated in growth medium (0.5 mL/well) containing ^86Rb^+ (2 μCi/mL) for 4 hour at 37° C. The loading mixture was then aspirated, and the cells were washed four times with 1 mL buffer (15 mM HEPES, 140 mM NaCl, 2 mM KCl, 1 mM MgSO4, 1.8 mM CaCl2), 11 mM Glucose, pH 7.4). One mL of buffer with or without compounds to be tested was then added to each well. After incubation for 2 min, the assay buffer was collected for measurements of ^86Rb^+ released from the cells. Cells were then lysed by adding 1 mL of 100 mM NaOH to each well, and the lysate was collected for determination of the amount of ^86Rb^+ that was in the cells at the end of the efflux assay. Radioactivity of assay samples and lysates was measured by liquid scintillation counting. Total loading (cpm) was calculated as the sum of the assay sample and the lysate of each well, and the amount of ^86Rb^+ efflux was expressed as a percentage of ^86Rb^+ loaded. Stimulated ^86Rb^+ efflux was defined as the difference between efflux in the presence and absence of nicotine. […] IC50 values were determined by nonlinear least-squares regression analyses (GraphPad. San Diego, Calif.)."}, "[2]": {"tested_on": "opiate receptors", "test": "[3H]-naloxone binding competition in rat forebrain membranes"}, "[3]": {"test": "Open field locomotor activity (rats)", "type": "in vivo, rat", "conditions": "5 mg/kg s.c., 30 min after injection", "protocol": "Locomotor Activity (Rats) Locomotor activity was measured 30 minutes after sc injection of test compound. Animals were placed in a Plexiglass enclosure (16″×16″×16″, TruScan Arena, Coulbourn Instruments, Whitehall, Pa.) with 770 lux illumination over the center of the arena. Animals were allowed to explore for 20 min, during which total distance traveled was recorded using ANYmaze software (Stoelting Co., Wood Dale, Ill.), as previously described (Forcelli et al., 2012)."}, "[4]": {"test": "Home cage locomotor activity (mice)", "type": "in vivo, mouse", "conditions": "mice, 0.5, 1, 5, 10 mg/kg i.p., 60 min", "protocol": "Locomotor Activity (Mice) Locomotor activity in response to i.p. drug administration was analyzed in a “home cage” activity monitoring system (Med Associates, St. Albans, Vt.), as previously described (Walters and Blendy, 2001; Mackler et al., 2008; Isiegas et al., 2009). Briefly, a novel cage identical to the home cage (28.9 cm×17.8 cm 12 cm) was placed in a photo-beam frame (30 cm×24 cm×8 cm) with sensors arranged in an 8-beam array strip. For dose studies, mice were injected i.p. with saline or drug. Immediately following drug administration, the mice were placed individually in the cages. Beam break data was monitored and recorded for 60 min."}, "[5]": {"test": "Elevated plus maze (rats)", "type": "in vivo, rat", "protocol": "Elevated Plus Maze (Rats) Plus maze testing was performed and scored as previously described (Forcelli and Heinrichs, 2008; Forcelli et al., 2012), in a standard grey rat elevated plus maze (50 cm arms, elevated 40 cm off the ground [Stoelting Co., Wood Dale, Ill.]). Testing was conducted under 20 lux red light, 30 min after drug administration. The number of arm entries and time spent in open and closed arms were recorded using ANYmaze (Stoelting Co, Wood Dale, Ill.)."}, "[6]": {"test": "Marble burying (mice)", "type": "in vivo, mouse", "conditions": "15 min test, vehicle mean 11 of 20", "protocol": "Marble Burying (Mice) After a 1 h period of acclimation to the testing room, the mice (n=6-10 per group) were injected i.p. with saline, EDDP, EMDP, or CDP at the doses indicated. Ten minutes later, the mice were placed individually in small cages (26×20×14 cm), in which twenty marbles had been equally distributed on top of mouse bedding (5-cm deep), and a wire lid was placed on top of the cage. Mice were left undisturbed for 15 min, after which time the number of buried marbles (i.e., those covered by bedding three-quarters or more) was counted."}, "[7]": {"test": "Forced swim test (rats)", "type": "in vivo, rat", "conditions": "three doses, 5 min test, vehicle 81 s", "protocol": "Forced Swim Test (FST; Rats) The FST in rats was conducted as previously described (Porsolt et al., 2001). On day 1, rats were placed in a cylindrical chamber (20 cm in diameter, 46 cm deep) filled to a height of 38 cm with room temperature water for 15 min. After the completion of this pre-exposure test, animals were removed from the apparatus, dried with towels and placed under a heat lamp for ˜30 min. […] Animals were treated with these same doses again 20 h and 23 h after the initial dose. Twenty-four h after the pre-exposure, animals were re-introduced to the apparatus and video-recorded for 5 min. Immobility was hand-scored for each video record by a treatment blind observer (P.A.F.) using ANYmaze (Stoelting) to record the data."}, "[8]": {"test": "Forced swim test (mice)", "type": "in vivo, mouse", "conditions": "6 min test", "protocol": "Forced Swim Test (FST; Mice) The FST in mice was conducted as previously described [11]. Briefly, 10 min following i.p. injection of saline, EDDP or EMDP, mice were placed in Plexiglas cylinders filled with water (25° C.) for 6 min while being videotaped. The forced swim score for the entire 6 min test was assessed using the Cleversystems videotracking system (CleverSys) and confirmed with visual scoring by a trained observer. A mouse was judged to be immobile when making only those movements necessary to keep its head above water."}, "[9]": {"test": "Eyelid ptosis assessment (rats)", "type": "in vivo, rat", "protocol": "Ptosis was assessed as previously described (Rubin et al., 1957). Each animal was photographed while gently restrained by hand. Photographs were analyzed by a treatment blind observer (P.A.F.) and assigned a score of 0 (no ptosis, eye completely open), 1 (mild, eye partially closed), 2 (moderate, eye half closed), 3 (severe, eye […] closed), or 4 (complete, eye completely closed)."}, "[10]": {"target": "rat α3β4 nAChR channels (Rattus norvegicus, UniProt P04757+P12392)", "sequence (P04757 26-499)": "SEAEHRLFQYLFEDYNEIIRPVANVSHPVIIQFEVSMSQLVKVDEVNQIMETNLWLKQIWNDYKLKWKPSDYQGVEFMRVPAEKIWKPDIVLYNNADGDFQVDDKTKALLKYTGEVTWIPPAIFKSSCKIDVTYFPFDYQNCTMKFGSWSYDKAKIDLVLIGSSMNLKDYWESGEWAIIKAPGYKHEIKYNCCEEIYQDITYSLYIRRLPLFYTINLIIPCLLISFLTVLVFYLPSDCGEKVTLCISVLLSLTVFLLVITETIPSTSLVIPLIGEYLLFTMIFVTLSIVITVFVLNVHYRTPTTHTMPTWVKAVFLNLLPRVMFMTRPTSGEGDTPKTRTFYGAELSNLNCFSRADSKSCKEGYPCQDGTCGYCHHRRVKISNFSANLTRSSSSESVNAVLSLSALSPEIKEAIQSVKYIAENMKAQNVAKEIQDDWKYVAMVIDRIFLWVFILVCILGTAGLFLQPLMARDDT", "sequence (P12392 21-495)": "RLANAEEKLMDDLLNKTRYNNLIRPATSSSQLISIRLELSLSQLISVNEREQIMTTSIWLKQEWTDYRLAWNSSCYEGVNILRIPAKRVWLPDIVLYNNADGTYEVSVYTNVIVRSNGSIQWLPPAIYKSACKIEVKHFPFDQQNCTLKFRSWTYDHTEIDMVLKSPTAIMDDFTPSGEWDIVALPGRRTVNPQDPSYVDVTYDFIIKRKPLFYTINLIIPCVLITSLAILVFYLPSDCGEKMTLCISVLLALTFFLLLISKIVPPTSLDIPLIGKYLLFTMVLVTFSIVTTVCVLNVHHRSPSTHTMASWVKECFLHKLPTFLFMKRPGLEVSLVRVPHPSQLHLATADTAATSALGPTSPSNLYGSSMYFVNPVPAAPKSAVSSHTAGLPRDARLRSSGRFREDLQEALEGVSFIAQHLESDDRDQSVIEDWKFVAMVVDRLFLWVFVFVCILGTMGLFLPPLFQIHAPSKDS", "conditions": "2001, cited from earlier work"}},
  "data": [
    {"smiles": "CCC1=NC(C)CC1(c1ccccc1)c1ccccc1", "note": "(racemic) [EMDP, 2-ethyl-5-methyl-3,3-diphenyl-1-pyrroline]", "values": [
      {"measurement": "potency relative to mecamylamine in blocking human α3β4 nAChRs", "setting": "[1]", "result": "half as potent as mecamylamine"},
      {"measurement": "fraction of [3H]-naloxone binding sites competed for", "setting": "[2]; at a concentration of 100 μM", "result": 60, "unit": "%"},
      {"measurement": "apparent affinity, fold lower than that of methadone", "setting": "[2]; rat forebrain [3H]-naloxone binding", "result": "~1900", "unit": "fold"},
      {"measurement": "Ki", "setting": "[2]; rat forebrain membranes, 2 nM [3H]-naloxone, single-site model", "result": 21, "unit": "µM"},
      {"measurement": "open field locomotor activity", "setting": "[3]", "result": "neither EDDP nor EMDP significantly altered"},
      {"measurement": "overall home cage locomotor activity", "setting": "[4]", "result": "did not significantly affect"},
      {"measurement": "mean duration in the open arms of the elevated plus maze", "setting": "[5]; s.c., dose not given, 30 min after drug, vehicle 104 s", "result": 143, "unit": "s"},
      {"measurement": "percentage of entries made into the open arms of the plus maze", "setting": "[5]; vs vehicle", "result": "the groups did not differ"},
      {"measurement": "latency to first entry in the open arms", "setting": "[5]; vs vehicle (data not shown)", "result": "did not differ as a function of treatment group"},
      {"measurement": "number of marbles buried vs vehicle", "setting": "[6]; 5 mg/kg i.p.", "result": "buried significantly fewer marbles"},
      {"measurement": "number of marbles buried vs vehicle", "setting": "[6]; 10 mg/kg i.p.", "result": "buried significantly fewer marbles"},
      {"measurement": "immobile time in forced swim test vs vehicle", "setting": "[7]; 10 mg/kg s.c.", "result": "reduced immobile time"},
      {"measurement": "immobile time in forced swim test vs vehicle", "setting": "[7]; 20 mg/kg s.c.", "result": "reduced immobile time"},
      {"measurement": "duration of immobility in forced swim test vs vehicle", "setting": "[8]; 5 mg/kg i.p.", "result": "did not affect immobility time"},
      {"measurement": "duration of immobility in forced swim test vs vehicle", "setting": "[8]; 10 mg/kg i.p.", "result": "significantly reduced"},
      {"measurement": "eyelid ptosis quantified over 3 h", "setting": "[9]; 20 mg/kg", "result": "ptosis was not apparent at any time"},
      {"measurement": "ptosis observed during forced swim tests", "setting": "[9]; 10 and 20 mg/kg", "result": "did not produce ptosis"},
      {"measurement": "potency relative to mecamylamine in blocking rat α3β4 nAChRs", "setting": "[10]; Xiao et al", "result": "one-sixth as potent"},
      {"measurement": "block of rat α3β4 nAChR channels", "setting": "[10]; Xiao et al.", "result": "potently block"}
    ]}
  ]
}
